Reference: patent US10501435B2, “Substituted quinazoline compounds and uses thereof for modulating glucocerebrosidase activity” (Northwestern University, priority 2015, dated 2019)
Entries after “also recorded” stand apart in the source; their conditions may differ.

What was measured:
N370S mutant GCase [1] = biological target: T1, N370S mutant GCase (Homo sapiens (Human), UniProt P04062, N370S); assay: GCase activity assay in patient N370S fibroblasts; type: cell-based; details: 3-day treatment, activity determined at pH 5.5
T1 sequence (P04062 40-536 N409S): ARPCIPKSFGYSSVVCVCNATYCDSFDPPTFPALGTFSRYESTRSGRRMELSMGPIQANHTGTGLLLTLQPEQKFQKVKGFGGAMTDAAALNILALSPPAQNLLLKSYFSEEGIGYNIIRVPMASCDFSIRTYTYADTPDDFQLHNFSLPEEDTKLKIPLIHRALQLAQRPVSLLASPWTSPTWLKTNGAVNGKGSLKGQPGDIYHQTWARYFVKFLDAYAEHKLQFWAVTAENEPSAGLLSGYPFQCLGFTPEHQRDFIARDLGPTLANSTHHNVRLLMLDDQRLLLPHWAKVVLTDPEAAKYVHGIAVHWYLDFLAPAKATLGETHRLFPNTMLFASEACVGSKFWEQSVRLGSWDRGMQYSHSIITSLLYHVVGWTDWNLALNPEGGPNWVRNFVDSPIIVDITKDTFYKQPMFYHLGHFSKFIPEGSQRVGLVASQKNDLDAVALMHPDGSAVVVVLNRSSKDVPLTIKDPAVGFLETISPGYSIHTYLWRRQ
Experimental: (§1) N370S Cell Culture and Compound Treatment. The N370S fibroblast cell line was obtained from Coriell, GM00372, cultured in DMEM medium (Life Tech) including 1% v/v L-glutamine 200 mM (Life Tech), 1% v/v pen strep (Life Tech), 10% FBS (Life Tech) at 37° C. and 5% CO2 and treated with different compounds at 0.2 μM and 2 μM. After a 3-day treatment, cells were washed with inhibitor free media 3 times and fed with inhibitor free media for 1 day, followed by 1% Triton X-100 lysis buffer to lyse cells. Protein concentrations were measured with a Bradford kit (Thermo), and the GCase activity was determined at pH 5.5.

wild-type GCase [2] = biological target: T2, wild-type GCase (Homo sapiens (Human), UniProt P04062); assay: GCase enzyme activity assay (4MU-β-Glc substrate, no taurocholate); type: biochemical; details: both pH conditions
T2 sequence (P04062 40-536): as the sequence (P04062 40-536 N409S) above, with S370N counted along it
Experimental: In previous studies, high concentrations of taurocholate (4-10 mM) were used to improve the signal in GCase enzyme activity assays^16,27,28. […] Here we describe our modifications of the substituents on the quinazoline ring.
4-Methylumbelliferyl β-D-glucopyranoside (4MU-β-Glc), 4-methylumbelliferyl α-D-glucopyranoside, 4-methylumbelliferyl α-D-galactopyranoside, and buffer components were purchased from Sigma-Aldrich (St. Louis, Mo.). The recombinant wild-type GCase enzyme velaglucerase alfa (Vpriv®, Shire Human Genetic Therapies, Inc.), acid α-glucosidase enzyme alglucosidase alfa (Lumizyme®, Genzyme Corporation), α-galactosidase A enzyme agalsidase beta (Fabrazyme®, Genzyme Corporation) were used in activity assays. […] A solution of 1 M sodium hydroxide and 1 M glycine (pH 10) was used as the stop solution for all three enzyme activity assays.
GCase Enzyme Activity Assay. The compounds in DMSO solution (0.5 μL/well) were transferred to a black 96-well plate (the final titration started from 100 μM, a 12 or 24-point 2-fold dilution series). […] After 5 min of incubation at room temperature, the enzyme reaction was initiated by the addition of blue substrate (4MU-β-Glc) (33 μL/well). The final concentration of the blue substrate was 1.5 mM. The blue substrate reaction was terminated by the addition of 33 μL/well stop solution (1 M NaOH and 1 M glycine mixture, pH 10) after 30 min of incubation at 37° C. […] The selected compounds were further assayed under pH 5.0 and pH 7.0 to evaluate their selectivity under various pH conditions.

N370S mutant GCase [3] = biological target: T1, N370S mutant GCase; assay: GCase protein levels by Western blot in patient N370S fibroblasts; type: cell-based; details: 3-day treatment, 0.2 μM and 2 μM
Experimental: as §1
Western Blot. Proteins were denatured in 20% SDS sample buffer at 100° C. for 10 min; 10% Bis-Tris gel (Life Tech) was used for gels; Trans-Blot Turbo PVDF kit (Bio-Rad) was used for membrane transfer, and Chemidoc MP system (Bio-Rad) was used to analyze the blots.

wild-type GCase [4] = biological target: T2, wild-type GCase; assay: Fluorescent thermal shift assay; type: binding; details: pH 5.0, 0.5 to 200 μM
Source text: Compounds shown to act as pharmacological chaperones for GCase (or other lysosomal enzymes) also stabilize the enzyme against thermal denaturation. A fluorescent thermal shift assay was developed to evaluate the binding affinity of ligands with protein^30. […] The maximum thermal shift of these compounds corresponded to their inhibitory activity at pH 5.0.
Fluorescence Thermal Shift Analysis^31. A robotic pipeline in the High Throughput Analysis Laboratory (HTAL) was used for protein ligand screening by fluorescence thermal shift (FTS) analysis. The pipeline used a Mosquito robot (TTP Labtech) for protein dispensing and an Echo 550 (Labcyte) to add compounds. Thermal scanning coupled with fluorescence detection was performed on a real-time PCR machine CFX384 (Bio-Rad Laboratories). The assay was run in 384-well PCR plates, using 10 μL citric acid/K2HPO4 buffer (50 mM citric acid, 150 mM K2HPO4, pH 5.0) per well. The assay concentration for protein was 1 μM and that for Sypro Orange (Invitrogen) was 5×. Protein was premixed with Sypro Orange and dispensed to a plate first, and compounds were added. Final concentrations of compounds ranged from 0.5 to 200 μM. Then the plate was sealed with an optical seal, shaken, and centrifuged. The thermal scan was from 10 to 95° C. with a temperature ramp rate of 1.5° C./min. The fluorescence was recorded every 10 sec. Data analysis and report generation were performed using the in-house software excelFTS.

GCase = GCase (Homo sapiens (Human), UniProt P04062); assay: Enzyme kinetic assay (Lineweaver-Burk, resorufin β-D-glucopyranoside); type: biochemical; details: substrate 30-150 μM, increasing inhibitor concentrations
GCase, sequence (P04062 40-536): as the sequence (P04062 40-536 N409S) above, with S370N counted along it
Experimental: We further tested compounds 4 and 11g by measuring GCase activity at various substrate concentrations (30-150 μM) and in the absence or presence of increasing concentrations of GCase inhibitors.
Enzyme Kinetic Assay. The substrate resorufin β-D-glucopyranoside was diluted to five concentrations, ranging from 30 to 150 μM. Seven concentrations of inhibitors (between 0.5- and 5-fold of IC50 value) and a DMSO control were added to the enzyme solution. The final enzyme concentration was 10 nM to give a linear reaction over 10 min. Enzyme kinetics were measured by the addition of 66 μL of substrate to a 96-well assay plate, followed by 33 μL of enzyme solution (with or without inhibitor) using a dispense module on a Biotek Synergy H1 multi-mode plate reader. The increase in product fluorescence was measured at 1 min intervals for 10 min in the plate reader. The rate of product formation was calculated by converting the fluorescence units to nanomoles of product per minute using a standard curve of the free fluorophore, resorufin.

α-galactosidase A (GLA) = α-galactosidase A (GLA) (Homo sapiens (Human), UniProt P06280); assay: Enzyme selectivity assay, α-galactosidase A; type: biochemical; details: compound treatments up to 100 μM, pH 4.8
α-galactosidase A (GLA), sequence (P06280 32-429): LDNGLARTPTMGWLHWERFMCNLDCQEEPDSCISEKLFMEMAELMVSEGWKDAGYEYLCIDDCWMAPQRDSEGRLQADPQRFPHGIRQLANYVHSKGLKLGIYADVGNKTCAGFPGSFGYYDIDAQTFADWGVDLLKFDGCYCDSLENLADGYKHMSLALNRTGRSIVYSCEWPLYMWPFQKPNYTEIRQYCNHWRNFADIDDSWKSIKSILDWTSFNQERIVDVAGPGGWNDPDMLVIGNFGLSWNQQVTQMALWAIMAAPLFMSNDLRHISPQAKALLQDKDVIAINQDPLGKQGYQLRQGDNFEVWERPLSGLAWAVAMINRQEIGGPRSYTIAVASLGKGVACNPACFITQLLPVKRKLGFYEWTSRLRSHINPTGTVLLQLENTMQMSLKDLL
Source text: (§2) 4-Methylumbelliferyl β-D-glucopyranoside (4MU-β-Glc), 4-methylumbelliferyl α-D-glucopyranoside, 4-methylumbelliferyl α-D-galactopyranoside, and buffer components were purchased from Sigma-Aldrich (St. Louis, Mo.). The recombinant wild-type GCase enzyme velaglucerase alfa (Vpriv®, Shire Human Genetic Therapies, Inc.), acid α-glucosidase enzyme alglucosidase alfa (Lumizyme®, Genzyme Corporation), α-galactosidase A enzyme agalsidase beta (Fabrazyme®, Genzyme Corporation) were used in activity assays. The GCase activity assay buffer was composed of 50 mM citric acid, 176 mM K2HPO4, and 0.01% Tween-20 at pH5.0, pH 5.9 and pH7.0. A solution of 1 M sodium hydroxide and 1 M glycine (pH 10) was used as the stop solution for all three enzyme activity assays.
(§3) Enzyme Selectivity Assays. The acid α-glucosidase and α-galactosidase A enzyme activity assay methods were similar to the GCase enzyme activity assay above with slight modifications. The buffer for the two enzyme assays consisted of 50 mM citric acid, 176 mM K2HPO4, and 0.01% Tween-20 at pH 4.8. The final enzyme concentrations for acid α-glucosidase and α-galactosidase A were 8 and 1 nM, respectively. The substrate concentrations for these related enzymes were at 0.16 and 0.4 mM, respectively.

acid α-glucosidase (GAA) = acid α-glucosidase (GAA) (Homo sapiens (Human), UniProt P10253); assay: Enzyme selectivity assay, acid α-glucosidase; type: biochemical; details: compound treatments up to 100 μM, pH 4.8
Source text: as §2, §3

c1ccc2c(c1)CC(Nc1nc(-c3ccsc3)nc3ccccc13)C2 [Compound 11g, N-(2,3-dihydro-1H-inden-2-yl)-2-(thiophen-3-yl)quinazolin-4-amine]
GCase activity in patient cells (N370S mutant GCase [1]): increased GCase activity | change of inhibitory activity at pH 5.0 and pH 7.0 compared to pH 5.9 (wild-type GCase [2]): only dropped slightly | concentration of GCase (protein level, Western blot) (N370S mutant GCase [3]): significantly increased | stabilization of wild-type GCase / change of GCase melting point (wild-type GCase [4]): stabilize wild-type GCase in a dose-dependent manner; also recorded: increased the GCase melting point in a dose-dependent manner | type of inhibition (Km, Vmax) (GCase): linear mixed inhibition | α-galactosidase A (GLA) activity (α-galactosidase A (GLA)): not significantly changed | acid α-glucosidase (GAA) activity (acid α-glucosidase (GAA)): not significantly changed
